Values of other authors in patent US9169190B2, “Methods for making retinoids and uses thereof” (The UAB Research Foundation, priority 2004, dated 2015).

Columns and labels:
[1] = tested on: MNU-induced mammary cancers; conditions: added to the diet of rats
mammary cancers = conditions: compared with 9cRA
[2] = tested on: juvenile myelomonocytic leukemia (JMML); conditions: children with JMML
[3] = tested on: acute promyelocytic leukemia (APL); conditions: patients with APL

Structure (SMILES): CC1=C(/C=C/C(C)=C\C=C\C(C)=C\C(=O)O)C(C)(C)CCC1 [9cRA]
- reduction of the number of MNU-induced mammary cancers [1]: 92%

Structure (SMILES): CC(=C/C=C/C(C)=C/C(=O)O)/C=C1\CCCc2ccccc21 [9cUAB30]
- chemopreventive efficacy of mammary cancers relative to 9cRA (mammary cancers): comparable
- toxicity relative to 9cRA (mammary cancers): less toxic

Structure (SMILES): CC1=C(/C=C/C(C)=C/C=C/C(C)=C\C(=O)O)C(C)(C)CCC1 [(13Z)-RA]
- children in whom excessive myeloproliferation is effectively controlled [2]: up to 50%

Structure (SMILES): CC1=C(/C=C/C(C)=C/C=C/C(C)=C/C(=O)O)C(C)(C)CCC1 [(all-E)-RA, All-trans-retinoic acid]
- complete remission rate [3]: 90%
